Data on 22 compounds can be found in US20140206681A1, “BTK INHIBITORS” (priority 2013, published 2014).

For orientation: IC50 means the point on the concentration scale where inhibition reaches its midpoint.

Test [1] deals with T1, BTK enzyme (recombinant full-length BTK, hBTK) (Homo sapiens, UniProt Q06187).
T1 construct: recombinant protein from baculovirus-transfected Sf9 cells: full-length BTK, 6HIS-tag cleaved; 6HIS (cleaved yes); made in house; host or cells: baculovirus-transfected Sf9 cells
T1 sequence (Q06187 whole entry): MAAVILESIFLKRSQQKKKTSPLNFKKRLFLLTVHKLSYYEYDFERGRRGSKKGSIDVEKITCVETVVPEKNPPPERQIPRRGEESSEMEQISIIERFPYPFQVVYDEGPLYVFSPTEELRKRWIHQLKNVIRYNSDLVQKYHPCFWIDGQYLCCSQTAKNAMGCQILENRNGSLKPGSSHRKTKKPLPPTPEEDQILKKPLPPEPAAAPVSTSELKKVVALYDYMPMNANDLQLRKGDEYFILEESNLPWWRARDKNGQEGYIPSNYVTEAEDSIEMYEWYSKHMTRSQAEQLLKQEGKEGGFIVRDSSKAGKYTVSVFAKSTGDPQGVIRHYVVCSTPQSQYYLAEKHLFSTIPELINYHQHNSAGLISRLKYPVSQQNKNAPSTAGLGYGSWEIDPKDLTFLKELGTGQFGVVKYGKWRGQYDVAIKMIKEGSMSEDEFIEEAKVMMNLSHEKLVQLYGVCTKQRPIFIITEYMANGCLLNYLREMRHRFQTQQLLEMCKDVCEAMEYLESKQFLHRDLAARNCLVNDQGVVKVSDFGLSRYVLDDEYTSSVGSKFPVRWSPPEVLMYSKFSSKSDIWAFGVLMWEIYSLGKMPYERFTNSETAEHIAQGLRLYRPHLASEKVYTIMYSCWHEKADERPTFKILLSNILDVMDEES
In words: BTK enzyme activity assay, LANCE TR-FRET. To be noted: 50 pM hBTK, 2 μM biotin-A5-peptide, 25 μM ATP; 60 min compound & enzyme incubation; read-out: IC50 BTK activity value. In kind it is biochemical.

A further test deals with HeLa cells. Put plainly: [3H]Adenosine uptake functional cellular assay. The test is classed as cell-based. The settings on record: Homo sapiens, HeLa, accumulation of [3H]adenosine into HeLa cells; compound range 10 μM to […]; read-out: Adenosine uptake inhibition IC50. The gist of the method: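 Inhibition of adenosine uptake was measured in HeLa cells (ATCC CCL-2) by following accumulation of tritiated adenosine. Cells were kept overnight at 37° C. with 5% (v/v) CO2, then switched to 40 μL HBSS plus 5% (v/v) FBS. 20 μL of 500 nM [3H]adenosine was added, and uptake was counted on a Topcount NXT reader.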

Regarding `Nc1ncc(F)n2c([C@@H]3CC[C@H]4CCC(=O)N4C3)nc(-c3ccc(C(=O)Nc4cc(C(F)(F)F)ccn4)cc3O)c12` [Example 165, 4-{8-amino-5-fluoro-3-[(6R,8aS)-3-oxooctahydroindolizin-6-yl]imidazo[1,5-a]pyrazin-1-yl}-3-hydroxy-N-[4-(trifluoromethyl)pyridin-2-yl]benzamide], the IC50 in test [1] was 2.3 nM; in the test with HeLa cells it was 1540 nM.
The like results for `Nc1ncc(F)n2c([C@@H]3CC[C@H]4CCC(=O)N4C3)nc(-c3ccc(C(=O)Nc4cc(C(F)(F)F)ccn4)cc3F)c12` [Example 166, 4-{8-amino-5-fluoro-3-[(6R,8aS)-3-oxooctahydroindolizin-6-yl]imidazo[1,5-a]pyrazin-1-yl}-3-fluoro-N-[4-(trifluoromethyl)pyridin-2-yl]benzamide] were, in that order, 0.34 nM and 296 nM.
For `Nc1ncc(F)n2c([C@@H]3CC[C@H]4CCC(=O)N4C3)nc(-c3ccc(C(=O)Nc4cc(C5CC5)ccn4)cc3F)c12` [Example 167, 4-{8-amino-5-fluoro-3-[(6R,8aS)-3-oxooctahydroindolizin-6-yl]imidazo[1,5-a]pyrazin-1-yl}-N-(4-cyclopropylpyridin-2-yl)-3-fluorobenzamide] the same measures were 1.3 nM and 318 nM.
`Nc1ncc(F)n2c([C@@H]3CC[C@H]4CCC(=O)N4C3)nc(-c3ccc(C(=O)Nc4cc(C5CC5)ccn4)cc3)c12` [Example 168, 4-{8-amino-5-fluoro-3-[(6R,8aS)-3-oxooctahydroindolizin-6-yl]imidazo[1,5-a]pyrazin-1-yl}-N-(4-cyclopropylpyridin-2-yl)benzamide]: the IC50 in test [1] came out at 1.5 nM; in the test on HeLa cells it was 285 nM.
For `CCOc1cc(C(=O)Nc2cc(C(F)(F)F)ccn2)c(F)cc1-c1nc([C@@H]2CC[C@H]3CCC(=O)N3C2)n2c(F)cnc(N)c12` [Example 169, 4-{8-amino-5-fluoro-3-[(6R,8aS)-3-oxooctahydroindolizin-6-yl]imidazo[1,5-a]pyrazin-1-yl}-5-ethoxy-2-fluoro-N-[4-(trifluoromethyl)pyridin-2-yl]benzamide] the same measures were 3.7 nM and 2950 nM.
For `Nc1nccn2c([C@@H]3CC[C@H]4CCC(=O)N4C3)nc(-c3ccc(C(=O)Nc4cc(C(F)(F)F)[nH]n4)cc3)c12` [Example 170, 4-(8-amino-3-((6R,8aS)-3-oxooctahydroindolizin-6-yl)imidazo[1,5-a]pyrazin-1-yl)-N-(5-(trifluoromethyl)-1H-pyrazol-3-yl)benzamide] the same measures were 36.9 nM and 6750 nM.
For `Cc1cc(NC(=O)c2ccc(-c3nc([C@@H]4CC[C@H]5CCC(=O)N5C4)n4ccnc(N)c34)cc2)nn1C` [Example 175, 4-{8-amino-3-[(6R,8aS)-3-oxooctahydroindolizin-6-yl]imidazo[1,5-a]pyrazin-1-yl}-N-(1,5-dimethyl-1H-pyrazol-3-yl)benzamide] the same measures were 6.5 nM and 725 nM.
For the compound `Cc1nsc(NC(=O)c2ccc(-c3nc([C@@H]4CC[C@H]5CCC(=O)N5C4)n4ccnc(N)c34)cc2)n1` [Example 176, 4-{8-amino-3-[(6R,8aS)-3-oxooctahydroindolizin-6-yl]imidazo[1,5-a]pyrazin-1-yl}-N-(3-methyl-1,2,4-thiadiazol-5-yl)benzamide], the IC50 is 14.9 nM in test [1] and 7810 nM in the test with HeLa cells.
With `Nc1nccn2c([C@@H]3CC[C@H]4CCC(=O)N4C3)nc(-c3ccc(C(=O)Nc4nc(C(F)(F)F)c[nH]4)cc3)c12` [Example 177, 4-{8-amino-3-[(6R,8aS)-3-oxooctahydroindolizin-6-yl]imidazo[1,5-a]pyrazin-1-yl}-N-[4-(trifluoromethyl)-1H-imidazol-2-yl]benzamide], the IC50 worked out at 144 nM in test [1] and 3320 nM with HeLa cells.
The like results for `CCc1nsc(NC(=O)c2ccc(-c3nc([C@@H]4CC[C@H]5CCC(=O)N5C4)n4ccnc(N)c34)cc2)n1` [Example 178, 4-{8-amino-3-[(6R,8aS)-3-oxooctahydroindolizin-6-yl]imidazo[1,5-a]pyrazin-1-yl}-N-(3-ethyl-1,2,4-thiadiazol-5-yl)benzamide] were, in that order, 27.6 nM and 5490 nM.
For `CC(C)c1nsc(NC(=O)c2ccc(-c3nc([C@@H]4CC[C@H]5CCC(=O)N5C4)n4ccnc(N)c34)cc2)n1` [Example 179, 4-{8-amino-3-[(6R,8aS)-3-oxooctahydroindolizin-6-yl]imidazo[1,5-a]pyrazin-1-yl}-N-[3-(1-methylethyl)-1,2,4-thiadiazol-5-yl]benzamide] the same measures were 68.9 nM and 2370 nM.
For `Nc1nccn2c([C@@H]3CC[C@H]4CCC(=O)N4C3)nc(-c3ccc(C(=O)Nc4cc(C(F)(F)F)n(C5CCCC5)n4)cc3)c12` [Example 180, 4-{8-amino-3-[(6R,8aS)-3-oxooctahydroindolizin-6-yl]imidazo[1,5-a]pyrazin-1-yl}-N-[1-cyclopentyl-5-(trifluoromethyl)-1H-pyrazol-3-yl]benzamide] the same measures were 285 nM and 230 nM.
For `Cc1nnc(NC(=O)c2ccc(-c3nc([C@@H]4CC[C@H]5CCC(=O)N5C4)n4ccnc(N)c34)cc2)s1` [Example 182, 4-{8-amino-3-[(6R,8aS)-3-oxooctahydroindolizin-6-yl]imidazo[1,5-a]pyrazin-1-yl}-N-(5-methyl-1,3,4-thiadiazol-2-yl)benzamide], the IC50 was 272 nM in test [1] and 3610 nM in the test on HeLa cells.
As for `Cn1nc(NC(=O)c2ccc(-c3nc([C@@H]4CC[C@H]5CCC(=O)N5C4)n4c(Cl)cnc(N)c34)cc2)cc1C(F)(F)F` [Example 183, 4-(8-amino-5-chloro-3-((6R,8aS)-3-oxooctahydroindolizin-6-yl)imidazo[1,5-a]pyrazin-1-yl)-N-(1-methyl-5-(trifluoromethyl)-1H-pyrazol-3-yl)benzamide], the IC50 in test [1] was found to be 0.64 nM; in the test with HeLa cells it was 470 nM.
For `CCn1nc(NC(=O)c2ccc(-c3nc([C@@H]4CC[C@H]5CCC(=O)N5C4)n4ccnc(N)c34)cc2)cc1C(F)(F)F` [Example 185, 4-{8-amino-3-[(6R,8aS)-3-oxooctahydroindolizin-6-yl]imidazo[1,5-a]pyrazin-1-yl}-N-[1-ethyl-5-(trifluoromethyl)-1H-pyrazol-3-yl]benzamide] the same measures were 237 nM and 5390 nM.
The like results for `Cc1cc(C(=O)Nc2cc(C(F)(F)F)ccn2)ccc1-c1nc([C@@H]2CC[C@H]3CCC(=O)N3C2)n2ccnc(N)c12` [Example 187, 4-{8-amino-3-[(6R,8aS)-3-oxooctahydroindolizin-6-yl]imidazo[1,5-a]pyrazin-1-yl}-3-methyl-N-[4-(trifluoromethyl)pyridin-2-yl]benzamide] were, in that order, 0.46 nM and 310 nM.
In the case of `COc1cc(C(=O)Nc2cc(C(F)(F)F)n(C)n2)ccc1-c1nc([C@@H]2CC[C@H]3CCC(=O)N3C2)n2ccnc(N)c12` [Example 188, 4-{8-amino-3-[(6R,8aS)-3-oxooctahydroindolizin-6-yl]imidazo[1,5-a]pyrazin-1-yl}-3-methoxy-N-[1-methyl-5-(trifluoromethyl)-1H-pyrazol-3-yl]benzamide], the IC50 in test [1] turned out to be 2.7 nM; in the test with HeLa cells, 3690 nM.
With `COc1cc(C(=O)Nc2cc(C(F)(F)F)n(C)n2)ccc1-c1nc([C@@H]2CC[C@H]3CCC(=O)N3C2)n2c(Cl)cnc(N)c12` [Example 189, 4-{8-amino-5-chloro-3-[(6R,8aS)-3-oxooctahydroindolizin-6-yl]imidazo[1,5-a]pyrazin-1-yl}-3-methoxy-N-[1-methyl-5-(trifluoromethyl)-1H-pyrazol-3-yl]benzamide], the IC50 in test [1] is 1.5 nM; in the test with HeLa cells, 1550 nM.
As for `Cn1nc(NC(=O)c2ccc(-c3nc([C@@H]4CC[C@H]5CCC(=O)N5C4)n4ccnc(N)c34)c(Cl)c2)cc1C(F)(F)F` [Example 190, 4-{8-amino-3-[(6R,8aS)-3-oxooctahydroindolizin-6-yl]imidazo[1,5-a]pyrazin-1-yl}-3-chloro-N-[1-methyl-5-(trifluoromethyl)-1H-pyrazol-3-yl]benzamide], the IC50 in test [1] is 2.2 nM; with HeLa cells, 310 nM.
For `Cn1nc(NC(=O)c2ccc(-c3nc([C@@H]4CC[C@H]5CCC(=O)N5C4)n4c(Cl)cnc(N)c34)c(Cl)c2)cc1C(F)(F)F` [Example 191, 4-{8-amino-5-chloro-3-[(6R,8aS)-3-oxooctahydroindolizin-6-yl]imidazo[1,5-a]pyrazin-1-yl}-3-chloro-N-[1-methyl-5-(trifluoromethyl)-1H-pyrazol-3-yl]benzamide] the same measures were 1.9 nM and 994 nM.
For `Cn1nc(NC(=O)c2cc(Cl)c(-c3nc([C@@H]4CC[C@H]5CCC(=O)N5C4)n4c(Cl)cnc(N)c34)cc2F)cc1C(F)(F)F` [Example 192, 4-{8-amino-5-chloro-3-[(6R,8aS)-3-oxooctahydroindolizin-6-yl]imidazo[1,5-a]pyrazin-1-yl}-5-chloro-2-fluoro-N-[1-methyl-5-(trifluoromethyl)-1H-pyrazol-3-yl]benzamide] the same measures were 24.6 nM and 408 nM.
For `Nc1nccn2c([C@@H]3CC[C@H]4CCC(=O)N4C3)nc(-c3cc(F)c(C(=O)Nc4cc(C(F)(F)F)ccn4)cc3Cl)c12` [Example 193, 4-{8-amino-3-[(6R,8aS)-3-oxooctahydroindolizin-6-yl]imidazo[1,5-a]pyrazin-1-yl}-5-chloro-2-fluoro-N-[4-(trifluoromethyl)pyridin-2-yl]benzamide] the same measures were 4.6 nM and 213 nM.
